Some test systems named below: HCC-2998 colon; SF-295 CNS; 786-0 renal; KM12 colon; CAKI-1 renal; SN12C renal; A498 renal; HS 578T breast; MCF7 breast; DU-145 prostate.
What all share (test): DTP human tumour cell line panel, 48 h

In PubChem BioAssay (NCI) one finds TGI and GI50 data, which are given here for 24 compounds.

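Values below derive from 48-hour exposures of cells grown in 96-well plates, with endpoints linearly interpolated between the two concentrations bracketing the appropriate inhibition level. GI50 is the concentration that inhibits growth by half. TGI is the concentration that stops growth completely.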

`NCC1(N2CCOCC2)C2CCCC21CNc1ccccc1` (stereo not given): the TGI in the test on HCC-2998 colon, in the test on SF-295 CNS, in the test on 786-0 renal, in the test on KM12 colon, with CAKI-1 renal and with SN12C renal was more than 100 µM in each case.
Consider `O=C(CSc1ncc(-c2ccccc2)n1-c1ccccc1)Nc1ccc(-c2nc3ccccc3s2)cc1`, for which the GI50 with A498 renal was 39.7 µM; with HCC-2998 colon, more than 100 µM; in the test on SF-295 CNS, 3.53 µM; in the test on 786-0 renal it was 5.34 µM; with HS 578T breast it was 4.89 µM; in the test with MCF7 breast it was 3.98 µM. The GI50 in the test on CAKI-1 renal is 4.21 µM; in the test on SN12C renal, 71.5 µM. Further, the TGI in the test with A498 renal is more than 100 µM; with HCC-2998 colon, more than 100 µM; with SF-295 CNS it was more than 100 µM; with 786-0 renal, more than 100 µM; with HS 578T breast, 80.8 µM; with MCF7 breast it was more than 100 µM. For the same compound, the TGI in the test on CAKI-1 renal and in the test with SN12C renal was more than 100 µM throughout.
For the compound `CC1CC(c2ccc(Cl)c(Cl)c2)=Nc2ccccc2S1` (stereo not given), the TGI in the test on A498 renal, with HCC-2998 colon, in the test on SF-295 CNS, in the test on 786-0 renal, with KM12 colon and in the test with CAKI-1 renal was more than 100 µM each time. The TGI with SN12C renal was more than 100 µM.
On to `CN1CCc2cc3c4cc2C1Cc1ccc(cc1)Oc1cc(ccc1O)CC1c2c(cc(O)c(c2O4)O3)CCN1C` (stereo not given), for which the TGI was 4.11 µM in the test on HCC-2998 colon; 3.11 µM in the test with SF-295 CNS; 10.9 µM in the test on 786-0 renal; 4.43 µM in the test on KM12 colon; 34.8 µM in the test with CAKI-1 renal; 14.8 µM in the test with SN12C renal.
As to `COC(=O)C1=C(\O)C[C@@]2(C)CC[C@@H](C(=O)OC)C2C/C=C\1C(=O)OC` (stereo not given in full), the TGI in the test with A498 renal is 75.3 µM; in the test with HCC-2998 colon, more than 100 µM; in the test with SF-295 CNS, more than 100 µM; in the test with 786-0 renal it was more than 100 µM; with KM12 colon it was more than 100 µM; in the test with CAKI-1 renal, more than 100 µM. Moreover, the total growth inhibition concentration (TGI) with SN12C renal was more than 100 µM.
Turning to `COC(CC1(OC)OC(=O)C=C1N)OC` (stereo not given), the TGI with A498 renal, in the test on HCC-2998 colon, with SF-295 CNS, with 786-0 renal, in the test with KM12 colon and in the test with SN12C renal was more than 100 µM throughout.
Regarding `COC(=O)NC(=O)c1cn(C2CCCCC2)c(=O)[nH]c1=O`, the TGI in the test on A498 renal, with HCC-2998 colon, with SF-295 CNS, in the test on 786-0 renal, in the test on KM12 colon and in the test on CAKI-1 renal was more than 100 µM throughout. For the same compound, in the test on SN12C renal, the TGI is more than 100 µM.
On to `NC(=O)c1cc([N+](=O)[O-])cc([N+](=O)[O-])c1`, for which the TGI in the test with A498 renal, with SF-295 CNS, in the test with 786-0 renal, with KM12 colon, in the test with CAKI-1 renal and with SN12C renal was more than 100 µM throughout.
For the compound `O=C(NC1C(=O)NNC1c1ccccc1Cl)c1ccccc1` (stereo not given), the TGI in the test on A498 renal, with HCC-2998 colon, with SF-295 CNS, in the test with 786-0 renal, in the test with KM12 colon and in the test with CAKI-1 renal was more than 100 µM throughout. This compound yielded a TGI in the test with SN12C renal of more than 100 µM.
For the compound `O=C1c2ccccc2C(=O)c2c1ccc1c2N=C(c2ccc(Br)cc2)CC(c2cccc3ccccc23)N1` (stereo not given), the TGI in the test on HCC-2998 colon, in the test with SF-295 CNS, in the test with 786-0 renal, in the test with KM12 colon, in the test on CAKI-1 renal and with SN12C renal was more than 100 µM throughout.
As to `Cn1cnc([N+](=O)[O-])c1Sc1nc2ccc([N+](=O)[O-])cc2[nH]1`, the TGI was 83.4 µM with A498 renal; 29.2 µM in the test with HCC-2998 colon; more than 100 µM in the test on SF-295 CNS; more than 100 µM in the test with 786-0 renal; more than 100 µM in the test on KM12 colon; 26.7 µM with CAKI-1 renal.
With `CCCCCCCCCCCC(=O)OC(COC(N)=O)COc1ccc(Cl)cc1` (stereo not given), the TGI in the test with A498 renal is more than 100 µM; in the test with HCC-2998 colon, 96.1 µM; with SF-295 CNS, 40 µM; in the test with 786-0 renal it was more than 100 µM; in the test on KM12 colon it was 61.1 µM; in the test with CAKI-1 renal it was 44.3 µM. The compound also showed a TGI in the test with SN12C renal of 70 µM.
As to `Cc1cc(N)cc(C)c1-c1c(Br)cc(N)cc1Br`, the GI50 in the test with A498 renal is 1.82 µM; in the test on HCC-2998 colon, 3.42 µM; in the test on SF-295 CNS, 2.76 µM; with 786-0 renal, 5.53 µM; in the test with MCF7 breast it was 4.54 µM; with KM12 colon, 3.75 µM. Further, the figures for the GI50 with CAKI-1 renal, in the test on SN12C renal and with DU-145 prostate were 3.07 µM, 6.05 µM and 2.89 µM, respectively. For the same compound, the TGI in the test with A498 renal is 7.54 µM; with HCC-2998 colon, 16.6 µM; in the test on SF-295 CNS it was 12.1 µM; in the test on 786-0 renal it was 18.7 µM; in the test on MCF7 breast, more than 100 µM; with KM12 colon, 17.3 µM. In addition, the TGI stood at 31.2 µM in the test on CAKI-1 renal, 73.2 µM in the test on SN12C renal and 9.13 µM in the test on DU-145 prostate.
Regarding `N#Cc1c(N)c(C#N)c2c(c1-c1ccc(Cl)cc1)COc1ccc(F)cc1-2`, the GI50 was 7.89 µM in the test with A498 renal; 13.5 µM in the test on SF-295 CNS; 20 µM in the test on 786-0 renal; 16.5 µM in the test on MCF7 breast; 12.3 µM with KM12 colon; 21 µM with CAKI-1 renal. Further, the GI50 was more than 50 µM in the test on SN12C renal and 14.7 µM in the test on DU-145 prostate. The TGI was 28 µM in the test on A498 renal; more than 50 µM in the test with SF-295 CNS; more than 50 µM in the test with 786-0 renal; more than 50 µM in the test with MCF7 breast; more than 50 µM in the test with KM12 colon; more than 50 µM in the test on CAKI-1 renal. In addition, the TGI in the test with SN12C renal and in the test with DU-145 prostate was more than 50 µM each time.
Regarding `NC(=O)c1ncn(Cc2ccccc2)c1CNC(N)=S`, the TGI in the test on HCC-2998 colon, with SF-295 CNS, with 786-0 renal, with KM12 colon and in the test with SN12C renal was more than 100 µM in each case.
For `O=c1c2cc(O)c(O)cc2oc2cc(O)c(C3OC(CO)C(O)C(O)C3O)c(O)c12` (stereo not given), the TGI in the test with A498 renal, in the test on HCC-2998 colon, with SF-295 CNS, in the test on 786-0 renal, in the test on HS 578T breast and in the test with MCF7 breast was more than 100 µM in each case. Further, the TGI in the test on KM12 colon and in the test with CAKI-1 renal was more than 100 µM throughout.
As for `O=C1CC[C@@H](NC(=O)Cc2ccccc2)C(=O)N1`, the TGI in the test on A498 renal, in the test on HCC-2998 colon, in the test on SF-295 CNS, in the test with 786-0 renal, in the test with KM12 colon and with CAKI-1 renal was more than 100 µM each time. The TGI with SN12C renal was more than 100 µM.
On to `CCCCC(C(=O)CCC(=O)Nc1ccc(Cl)cc1)C(=O)C(C)C` (stereo not given), for which the TGI with A498 renal, with HCC-2998 colon, in the test on SF-295 CNS, in the test on 786-0 renal, in the test with KM12 colon and in the test on CAKI-1 renal was more than 100 µM each time. This compound registered a TGI in the test on SN12C renal of more than 100 µM.
In the case of `O=C(/C=C/c1ccc(O)cc1)c1cc(Cl)ccc1O`, the TGI with A498 renal, in the test on HCC-2998 colon, in the test on SF-295 CNS, in the test with 786-0 renal, with KM12 colon and in the test with CAKI-1 renal was more than 100 µM throughout. In the test on SN12C renal, this compound came in with a TGI of more than 100 µM.
Take `Cc1c(O)c(Br)c(C)c(O)c1Br` (tested in a mixture with another compound): the total growth inhibition concentration (TGI) with A498 renal came to 29 µM; in the test on SF-295 CNS, 37.1 µM; in the test on 786-0 renal, 3.2 µM; in the test with HS 578T breast, 19.9 µM; in the test with KM12 colon, 41.2 µM; in the test with CAKI-1 renal, 3.67 µM. The same compound registered a TGI in the test on DU-145 prostate of 5.15 µM.
As to `ClCCCCOC1CCCCO1` (stereo not given), the TGI with A498 renal, in the test with HCC-2998 colon, in the test with SF-295 CNS, with 786-0 renal, in the test on KM12 colon and in the test on CAKI-1 renal was more than 100 µM throughout. For the same compound, the concentration for total growth inhibition (TGI) in the test with SN12C renal is more than 100 µM.
In the case of `Cc1ccc(NC(=O)C(=O)CC(=O)c2ccccc2)cc1C`, the TGI with A498 renal, with HCC-2998 colon, with SF-295 CNS, in the test on 786-0 renal, with KM12 colon and with CAKI-1 renal was more than 100 µM in each case. In the test with SN12C renal, this compound gave a concentration for total growth inhibition (TGI) of more than 100 µM.
In the case of `O=C(O)c1cn(C2CC2)c2cc(N3CCN(Cc4ccc5ccccc5c4O)CC3)c(F)cc2c1=O`, the GI50 in the test on A498 renal is 2.09 µM; in the test on SF-295 CNS, 4.29 µM; in the test on 786-0 renal, 2.34 µM; in the test with HS 578T breast, 2.3 µM; in the test with MCF7 breast it was 3.63 µM; in the test with SN12C renal, 3.44 µM. For the same compound, the TGI was 4.67 µM in the test with A498 renal; more than 100 µM with SF-295 CNS; 5.42 µM in the test with 786-0 renal; 6.9 µM in the test with HS 578T breast; more than 100 µM in the test on MCF7 breast; more than 100 µM in the test with SN12C renal.
As to `c1ccc2c(c1)N=C(c1ccc3ccccc3c1)CC(c1cccc3ccccc13)S2` (stereo not given), the TGI is 75.4 µM in the test with A498 renal; 40.3 µM in the test on HCC-2998 colon; more than 100 µM in the test on SF-295 CNS; more than 100 µM with 786-0 renal; more than 100 µM with KM12 colon; more than 100 µM in the test with CAKI-1 renal. In the test on SN12C renal, this compound displayed a TGI of more than 100 µM.

Usually TGI stands for the concentration giving total growth inhibition. In general, GI50 refers to the concentration that inhibits growth by half.
